According to patent US6353025B1, “Phenylaminoalkylcarboxylic acid derivatives and pharmaceutical compositions comprising the same” (Kissei Pharmaceutical Co., Ltd., priority 1997, dated 2002):
Where a name gives a salt, the structure may show the parent alone. Read-outs that look alike come from different tables or passages of the source.

How the values were obtained:
β1-adrenoceptor = target: T1, β1-adrenoceptor (Rattus norvegicus, UniProt P18090); test: β1-adrenoceptor stimulating effects: increase of heart rate in isolated rat atria (Magnus method); set-up: species or system SD rats
T1 construct: Atria of male SD rats (250 to 400 g in body weight) were isolated; from tissue; host or cells: isolated rat atria
Protocol: The experiment for measuring β1-adrenoceptor stimulating effects
Atria of male SD rats (250 to 400 g in body weight) were isolated and the experiment was conducted according to the Magnus method. The preparations with a tension of 0.5 g were exposed to Krebs-Henseleit solution maintained at 37° C. and gassed with a mixture of 95% oxygen and 5% carbon dioxide. The cardiac contractility was measured isometrically with a force-displacement transducer, and heart rate was recorded on a rectigram via a tachometer, and the drug was added cumulatively.

β2-adrenoceptor = target: T2, β2-adrenoceptor (Rattus norvegicus, UniProt P10608); test: β2-adrenoceptor stimulating effects: inhibition of spontaneous contraction of isolated pregnant rat uterus (Magnus method); settings: isolated uterine muscle strips of pregnant SD rats (pregnancy day 21)
T2 construct: Uteri of pregnant SD rats (pregnancy day 21) were isolated and longitudinal uterine muscle strips; from tissue; host or cells: longitudinal uterine muscle strips of pregnant SD rats
Protocol: The experiment for measuring β2-adrenoceptor stimulating effects
Uteri of pregnant SD rats (pregnancy day 21) were isolated and longitudinal uterine muscle strips of approximately 15 mm in length and approximately 5 mm in width free from the basal plate were prepared. The experiment was conducted according to the Magnus method. The preparations with a tension of 0.5 g were exposed to Locke-Ringer solution maintained at 37° C. and gassed with a mixture of 95% oxygen and 5% carbon dioxide. Spontaneous contractions of myometrium were measured isometrically with a force-displacement transducer and recorded on a rectigram. The drug was added cumulatively to the Magnus bath every 5 minutes.

β3-adrenoceptor = β3-adrenoceptor (Mustela putorius furo, UniProt M3YEU4); test: β3-adrenoceptor stimulating effects: relaxation of isolated ferret urinary bladder smooth muscle strips (Magnus method); settings: read-out: EC50 (molar concentration producing 50% relaxation of urinary bladder smooth muscle); isolated male ferret urinary bladder strips; 0% = maximal relaxation after 10^−5 M forskolin
Protocol: The experiment for measuring β3-adrenoceptor stimulating effects
Urinary bladders of male ferrets (1100 to 1400 g in body weight) were isolated and urinary bladder smooth muscle strips of approximately 10 mm in length and approximately 2 mm in width were prepared. The experiment was conducted according to the Magnus method. The preparations with a tension of 1 g were exposed to Krebs-Henseleit solution maintained at 37° C. and gassed with a mixture of 95% oxygen and 5% carbon dioxide. Basal tensions of urinary bladder were measured isometrically with a force-displacement transducer and recorded on a rectigram. The drug was added cumulatively to the Magnus bath every 5 minutes. […] In this experiment, tension of urinary bladder smooth muscle before the addition of the drug was expressed as 100% and tension of maximal relaxation after the addition of 10^−5 molar concentration of forskolin was expressed as 0%.

male ICR rats = test: Acute toxicity test; type: in vivo; settings: male ICR rats of 4 weeks age, intravenously, 250 mg/kg, during 24 hours after the administration
Protocol: To male ICR rats of 4 weeks age was administered intravenously N-[2,6-dichloro-4-[2-[[(1S, 2R)-2-hydroxy-2-(4-hydroxyphenyl)-1-methylethyl]amino]ethyl]phenyl]aminoacetic acid at a dose of 250 mg/kg.

T1 sequence (P18090 whole entry): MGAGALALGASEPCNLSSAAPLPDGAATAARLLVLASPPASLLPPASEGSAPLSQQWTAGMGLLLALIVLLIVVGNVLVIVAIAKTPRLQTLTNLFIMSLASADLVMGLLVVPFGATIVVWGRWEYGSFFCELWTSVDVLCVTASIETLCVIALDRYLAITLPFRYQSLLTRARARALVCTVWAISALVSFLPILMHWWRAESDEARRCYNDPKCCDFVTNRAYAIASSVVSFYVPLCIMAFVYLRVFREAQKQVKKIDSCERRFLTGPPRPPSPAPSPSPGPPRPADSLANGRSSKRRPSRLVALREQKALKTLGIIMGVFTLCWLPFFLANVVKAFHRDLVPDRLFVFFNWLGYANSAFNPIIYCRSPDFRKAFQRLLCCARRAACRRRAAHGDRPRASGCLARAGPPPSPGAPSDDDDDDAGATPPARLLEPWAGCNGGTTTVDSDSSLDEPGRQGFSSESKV
T2 sequence (P10608 whole entry): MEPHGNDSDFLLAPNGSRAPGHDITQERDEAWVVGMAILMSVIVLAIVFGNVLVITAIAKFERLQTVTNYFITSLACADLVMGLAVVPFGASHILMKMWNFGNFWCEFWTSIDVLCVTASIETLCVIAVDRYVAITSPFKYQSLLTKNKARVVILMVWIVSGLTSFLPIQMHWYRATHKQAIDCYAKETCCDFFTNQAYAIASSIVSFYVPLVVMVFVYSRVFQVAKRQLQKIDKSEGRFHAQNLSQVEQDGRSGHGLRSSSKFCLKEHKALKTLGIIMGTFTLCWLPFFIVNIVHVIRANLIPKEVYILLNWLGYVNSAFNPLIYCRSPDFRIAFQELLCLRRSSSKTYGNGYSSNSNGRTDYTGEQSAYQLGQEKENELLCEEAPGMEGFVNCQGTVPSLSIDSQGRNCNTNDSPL
Chain of β3-adrenoceptor (M3YEU4 entry or part of it): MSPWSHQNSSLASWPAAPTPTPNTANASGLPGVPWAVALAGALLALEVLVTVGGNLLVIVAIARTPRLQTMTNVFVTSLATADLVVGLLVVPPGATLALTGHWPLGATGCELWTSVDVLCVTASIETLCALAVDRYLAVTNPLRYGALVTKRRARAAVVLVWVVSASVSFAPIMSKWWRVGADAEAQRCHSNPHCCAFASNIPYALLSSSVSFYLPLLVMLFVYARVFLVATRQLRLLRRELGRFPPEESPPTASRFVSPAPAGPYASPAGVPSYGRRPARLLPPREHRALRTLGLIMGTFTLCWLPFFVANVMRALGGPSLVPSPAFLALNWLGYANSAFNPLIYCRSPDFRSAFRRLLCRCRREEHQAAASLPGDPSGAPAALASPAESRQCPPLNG

SMILES | EC50 (β1-adrenoceptor) [µM] | EC50 (β2-adrenoceptor) [µM] | other results
C[C@H](NCCc1ccc(NCC(=O)O)c(Cl)c1)[C@H](O)c1ccc(O)cc1 [Compound 20, N-[2-Chloro-4-[2-[[(1S, 2R)-2-hydroxy-2-(4-hydroxyphenyl)-1-methylethyl]amino]ethyl]phenyl]aminoacetic acid] | 23 | 3.3 | –
C[C@H](NCCc1ccc(N(C)CC(=O)O)cc1)[C@H](O)c1ccc(O)cc1 [Compound 21, N-[4-[2-[[(1S, 2R)-2-Hydroxy-2-(4-hydroxyphenyl)-1-methylethyl]-amino]ethyl]phenyl]-N-methylaminoacetic acid] | 34 | 1.6 | –
C[C@H](NCCc1cc(Cl)c(NCC(=O)N(C)C)c(Cl)c1)[C@H](O)c1ccc(O)cc1 [Compound 16, 2-[[2,6-Dichloro-4-[2-[[(1S, 2R)-2-hydroxy-2-(4-hydroxyphenyl)-1-methylethyl]amino]ethyl]phenyl]amino]-N, N-dimethylacetamide hydrochloride] | > 100 | – | –
C[C@H](NCCc1ccc(NCC(=O)O)cc1)[C@H](O)c1ccc(O)cc1 [Compound 18, N-[4-[2-[[(1S, 2R)-2-hydroxy-2-(4-hydroxyphenyl)-1-methylethyl]-amino]ethyl]phenyl]aminoacetic acid] | 0.083 | 0.65 | –
C[C@H](NCCc1cc(Br)c(NCC(=O)O)c(Br)c1)[C@H](O)c1ccc(O)cc1 [Compound 29, N-[2,6-Dibromo-4-[2-[[(1S, 2R)-2-hydroxy-2-(4-hydroxyphenyl)-1-methylethyl]amino]ethyl]phenyl]aminoacetic acid] | > 100 | – | –
C[C@H](Cc1ccc(OCC(=O)O)cc1)NC[C@H](O)c1cccc(Cl)c1 [BRL-37344, reference compound] | – | – | EC50 (β3-adrenoceptor): 0.0016 µM; EC50 (β1-adrenoceptor; read-out: EC50 (molar concentration producing 50% increase of heart rate per minute), isolated male SD rat atria, 100% = increase after 10^−8 M isoproterenol): 0.27 µM; EC50 (β2-adrenoceptor; read-out: EC50 (molar concentration producing 50% inhibition of uterine contraction)): 0.009 µM
C[C@H](NCCc1cc(Cl)c(NCC(=O)N2CCOCC2)c(Cl)c1)[C@H](O)c1ccc(O)cc1 [Compound 32, 4-[2-[[2,6-Dichloro-4-[2-[[(1S, 2R)-2-hydroxy-2-(4-hydroxy-phenyl)-1-methylethyl]amino]ethyl]phenyl]amino]acetyl]morpholine] | > 100 | 1.7 | –
C[C@H](NCCc1cc(Cl)c(NCC(=O)O)c(Cl)c1)[C@H](O)c1ccc(O)cc1 [Compound 17, N-[2,6-Dichloro-4-[2-[[(1S, 2R)-2-hydroxy-2-(4-hydroxyphenyl)-1-methylethyl]amino]ethyl]phenyl]aminoacetic acid] | > 100 | 14 | Death of animals (acute toxicity) (male ICR rats): No death of animals was observed
CCOC(=O)CNc1c(Cl)cc(CCN[C@@H](C)[C@H](O)c2ccc(O)cc2)cc1Cl [Compound 2, Ethyl N-[2,6-dichloro-4-[2-[[(1S, 2R)-2-hydroxy-2-(4-hydroxy-phenyl)-1-methylethyl]amino]ethyl]phenyl]aminoacetate hydrochloride] | 0.05 | 0.65 | –
